Data reported in ChEMBL document CHEMBL1156506, “Changes to the HIV long terminal repeat and to HIV integrase differentially impact HIV integrase assembly, activity, and the binding of strand transfer inhibitors” (J Biol Chem, 2007).

How the values were obtained:
[1] = tested on: Human immunodeficiency virus; test: Binding affinity to HIV wild type integrase using U5 GTTC LTR relative to wild type LTR; details: tested as the 3H-labelled form
[2] = tested on: Human immunodeficiency virus type 1 integrase (Human immunodeficiency virus 1), Q7ZJM1 [N155H]; test: Binding affinity to HIV recombinant integrase N155H mutant using U5 GTdA LTR relative to wild type LTR; details: tested as the 3H-labelled form
[3] = tested on: Human immunodeficiency virus type 1 integrase (Human immunodeficiency virus 1), Q7ZJM1 [N155H]; test: Binding affinity to HIV recombinant integrase N155H mutant using U5 dTCA LTR relative to wild type LTR; details: tested as the 3H-labelled form
[4] = tested on: Human immunodeficiency virus type 1 integrase (Human immunodeficiency virus 1), Q7ZJM1 [N155H]; test: Inhibition of HIV recombinant integrase N155H mutant assessed as specific strand transfer activity using U5 GTdA LTR by scintillation proximity assay relative to wild type LTR; parameters: scale not given: the % may be the effect or the level left; details: tested as the 3H-labelled form
[5] = Inhibition of HIV wild type integrase strand transfer activity; parameters: species or system Human immunodeficiency virus
[6] = tested on: Human immunodeficiency virus; test: Inhibition of HIV wild type integrase assessed as strand transfer activity using U5 GTCA LTR by scintillation proximity assay relative to wild type LTR; parameters: scale not given: the % may be the effect or the level left; details: tested as the 3H-labelled form
[7] = tested on: Human immunodeficiency virus; test: Binding affinity to HIV wild type integrase using U5 GTCA LTR relative to wild type LTR; details: tested as the 3H-labelled form
[8] = tested on: Human immunodeficiency virus; test: Inhibition of HIV wild type integrase assessed as strand transfer activity using U5 GTGA LTR by scintillation proximity assay relative to wild type LTR; parameters: scale not given: the % may be the effect or the level left; details: tested as the 3H-labelled form
[9] = tested on: Human immunodeficiency virus type 1 integrase (Human immunodeficiency virus 1), Q7ZJM1 [N155H]; test: Inhibition of HIV recombinant integrase N155H mutant assessed as strand transfer activity using U5 TTCA LTR by scintillation proximity assay relative to wild type LTR; parameters: scale not given: the % may be the effect or the level left; details: tested as the 3H-labelled form
[10] = tested on: Human immunodeficiency virus type 1 integrase (Human immunodeficiency virus 1), Q7ZJM1 [N155H]; test: Inhibition of HIV recombinant integrase N155H mutant assessed as specific strand transfer activity using U5 TTCA LTR by scintillation proximity assay relative to wild type LTR; parameters: scale not given: the % may be the effect or the level left; details: tested as the 3H-labelled form
[11] = tested on: Human immunodeficiency virus type 1 integrase (Human immunodeficiency virus 1), Q7ZJM1 [N155H]; test: Inhibition of HIV recombinant integrase N155H mutant assessed as specific strand transfer activity using U5 GddA LTR by scintillation proximity assay relative to wild type LTR; parameters: scale not given: the % may be the effect or the level left; details: tested as the 3H-labelled form
[12] = tested on: Human immunodeficiency virus type 1 integrase (Human immunodeficiency virus 1), Q7ZJM1 [Q148R]; test: Inhibition of HIV recombinant integrase Q148R mutant assessed as strand transfer activity using U5 GTCA LTR by scintillation proximity assay relative to wild type LTR; parameters: scale not given: the % may be the effect or the level left; details: tested as the 3H-labelled form
[13] = tested on: Human immunodeficiency virus type 1 integrase (Human immunodeficiency virus 1), Q7ZJM1 [Q148R]; test: Inhibition of HIV recombinant integrase Q148R mutant assessed as strand transfer activity using U5 GTC LTR by scintillation proximity assay relative to wild type LTR; parameters: scale not given: the % may be the effect or the level left; details: tested as the 3H-labelled form
[14] = tested on: Human immunodeficiency virus type 1 integrase (Human immunodeficiency virus 1), Q7ZJM1 [Q148R]; test: Inhibition of HIV recombinant integrase Q148R mutant assessed as strand transfer activity using U5 GTdA LTR by scintillation proximity assay relative to wild type LTR; parameters: scale not given: the % may be the effect or the level left; details: tested as the 3H-labelled form
[15] = tested on: Human immunodeficiency virus type 1 integrase (Human immunodeficiency virus 1), Q7ZJM1 [Q148R]; test: Inhibition of HIV recombinant integrase Q148R mutant assessed as strand transfer activity using U5 TTCA LTR by scintillation proximity assay relative to wild type LTR; parameters: scale not given: the % may be the effect or the level left; details: tested as the 3H-labelled form
[16] = tested on: Human immunodeficiency virus type 1 integrase (Human immunodeficiency virus 1), Q7ZJM1 [Q148R]; test: Binding affinity to HIV recombinant integrase Q148R mutant using U5 GTCA LTR relative to wild type LTR; details: tested as the 3H-labelled form
[17] = tested on: Human immunodeficiency virus type 1 integrase (Human immunodeficiency virus 1), Q7ZJM1 [Q148R]; test: Binding affinity to HIV recombinant integrase Q148R mutant using U5 GTC LTR relative to wild type LTR; details: tested as the 3H-labelled form
[18] = tested on: Human immunodeficiency virus type 1 integrase (Human immunodeficiency virus 1), Q7ZJM1 [Q148R]; test: Binding affinity to HIV recombinant integrase Q148R mutant using U5 GdCA LTR relative to wild type LTR; details: tested as the 3H-labelled form
[19] = tested on: Human immunodeficiency virus type 1 integrase (Human immunodeficiency virus 1), Q7ZJM1 [Q148R]; test: Binding affinity to HIV recombinant integrase Q148R mutant using U5 TTCA LTR relative to wild type LTR; details: tested as the 3H-labelled form
[20] = tested on: Human immunodeficiency virus type 1 integrase (Human immunodeficiency virus 1), Q7ZJM1 [Q148R]; test: Binding affinity to HIV recombinant integrase Q148R mutant using U5 ApTCA LTR relative to wild type LTR; details: tested as the 3H-labelled form
[21] = tested on: Human immunodeficiency virus type 1 integrase (Human immunodeficiency virus 1), Q7ZJM1 [Q148R]; test: Inhibition of U5 GTCA LTR HIV recombinant integrase Q148R mutant assessed as specific strand transfer activity using by scintillation proximity assay relative to wild type LTR; parameters: scale not given: the % may be the effect or the level left; details: tested as the 3H-labelled form
[22] = tested on: Human immunodeficiency virus type 1 integrase (Human immunodeficiency virus 1), Q7ZJM1 [Q148R]; test: Inhibition of U5 GdCA LTR HIV recombinant integrase Q148R mutant assessed as specific strand transfer activity using by scintillation proximity assay relative to wild type LTR; parameters: scale not given: the % may be the effect or the level left; details: tested as the 3H-labelled form
[23] = tested on: Human immunodeficiency virus type 1 integrase (Human immunodeficiency virus 1), Q7ZJM1 [Q148R]; test: Inhibition of U5 INTCA LTR HIV recombinant integrase Q148R mutant assessed as specific strand transfer activity using by scintillation proximity assay relative to wild type LTR; parameters: scale not given: the % may be the effect or the level left; details: tested as the 3H-labelled form
[24] = tested on: Human immunodeficiency virus type 1 integrase (Human immunodeficiency virus 1), Q7ZJM1 [Q148R]; test: Inhibition of U5 ApTCA LTR HIV recombinant integrase Q148R mutant assessed as specific strand transfer activity using by scintillation proximity assay relative to wild type LTR; parameters: scale not given: the % may be the effect or the level left; details: tested as the 3H-labelled form
[25] = tested on: Human immunodeficiency virus; test: Inhibition of HIV wild type integrase assessed as strand transfer activity using U5 INTCA LTR by scintillation proximity assay relative to wild type LTR; parameters: scale not given: the % may be the effect or the level left; details: tested as the 3H-labelled form
[26] = tested on: Human immunodeficiency virus; test: Inhibition of HIV wild type integrase assessed as strand transfer activity using U5 ApTCA LTR by scintillation proximity assay relative to wild type LTR; parameters: scale not given: the % may be the effect or the level left; details: tested as the 3H-labelled form
[27] = tested on: Human immunodeficiency virus; test: Inhibition of HIV wild type integrase assessed as strand transfer activity using U5 GdC LTR by scintillation proximity assay relative to wild type LTR; parameters: scale not given: the % may be the effect or the level left; details: tested as the 3H-labelled form
[28] = tested on: Human immunodeficiency virus; test: Inhibition of HIV wild type integrase assessed as strand transfer activity using U5 GTAA LTR by scintillation proximity assay relative to wild type LTR; parameters: scale not given: the % may be the effect or the level left; details: tested as the 3H-labelled form
[29] = tested on: Human immunodeficiency virus; test: Binding affinity to HIV wild type integrase using U5 dTCA LTR relative to wild type LTR; details: tested as the 3H-labelled form
[30] = tested on: Human immunodeficiency virus; test: Binding affinity to HIV wild type integrase using U5 ApTCA LTR relative to wild type LTR; details: tested as the 3H-labelled form
[31] = tested on: Human immunodeficiency virus; test: Binding affinity to HIV wild type integrase using U5 GTTA LTR relative to wild type LTR; details: tested as the 3H-labelled form
[32] = tested on: Human immunodeficiency virus; test: (§1) Binding affinity to HIV wild type integrase using U5 GTAA LTR relative to wild type LTR; details: tested as the 3H-labelled form
[33] = tested on: Human immunodeficiency virus; test: as §1; details: tested as the 3H-labelled form; remark: listed apart in the source
[34] = tested on: Human immunodeficiency virus; test: Binding affinity to HIV wild type integrase using U5 GTAC LTR relative to wild type LTR; details: tested as the 3H-labelled form
[35] = tested on: Human immunodeficiency virus; test: Binding affinity to HIV wild type integrase using U5 GCCA LTR relative to wild type LTR; details: tested as the 3H-labelled form
[36] = tested on: Human immunodeficiency virus; test: Binding affinity to HIV wild type integrase using U5 ATCA LTR relative to wild type LTR; details: tested as the 3H-labelled form
[37] = tested on: Human immunodeficiency virus; test: Inhibition of HIV wild type integrase assessed as strand transfer activity U5 CTCA LTR by scintillation proximity assay relative to wild type LTR; parameters: scale not given: the % may be the effect or the level left; details: tested as the 3H-labelled form
[38] = tested on: Human immunodeficiency virus; test: Binding affinity to HIV wild type integrase using U5 GTCA/CC LTR relative to wild type LTR; details: tested as the 3H-labelled form
[39] = tested on: Human immunodeficiency virus; test: Inhibition of HIV wild type integrase assessed as specific strand transfer activity using U5 GTCA LTR by scintillation proximity assay relative to wild type LTR; parameters: scale not given: the % may be the effect or the level left; details: tested as the 3H-labelled form
[40] = tested on: Human immunodeficiency virus; test: Inhibition of HIV wild type integrase assessed as specific strand transfer activity using U5 GdC LTR by scintillation proximity assay relative to wild type LTR; parameters: scale not given: the % may be the effect or the level left; details: tested as the 3H-labelled form
[41] = tested on: Human immunodeficiency virus; test: Inhibition of HIV wild type integrase assessed as specific strand transfer activity using U5 GddA LTR by scintillation proximity assay relative to wild type LTR; parameters: scale not given: the % may be the effect or the level left; details: tested as the 3H-labelled form
[42] = tested on: Human immunodeficiency virus; test: Inhibition of HIV wild type integrase assessed as specific strand transfer activity using U5 GTTA LTR by scintillation proximity assay relative to wild type LTR; parameters: scale not given: the % may be the effect or the level left; details: tested as the 3H-labelled form
[43] = tested on: Human immunodeficiency virus; test: Inhibition of HIV wild type integrase assessed as specific strand transfer activity using U5 GTAA LTR by scintillation proximity assay relative to wild type LTR; parameters: scale not given: the % may be the effect or the level left; details: tested as the 3H-labelled form
[44] = tested on: Human immunodeficiency virus; test: Inhibition of HIV wild type integrase assessed as specific strand transfer activity using U5 GACA LTR by scintillation proximity assay relative to wild type LTR; parameters: scale not given: the % may be the effect or the level left; details: tested as the 3H-labelled form
[45] = tested on: Human immunodeficiency virus type 1 integrase (Human immunodeficiency virus 1), Q7ZJM1 [N155H]; test: Inhibition of HIV recombinant integrase N155H mutant assessed as strand transfer activity using U5 GdCA LTR by scintillation proximity assay relative to wild type LTR; parameters: scale not given: the % may be the effect or the level left; details: tested as the 3H-labelled form

SMILES: Cn1c(N2CCCCS2(=O)=O)nc(C(=O)NCc2ccc(F)cc2)c(O)c1=O [BMS-707035]
- Activity [1]: 25%
- Activity [2]: 12%
- Activity [3]: 2%
- Activity [4]: 35%
- IC50 [5]: 15 nM
- Activity [6]: 75%
- Activity [7]: 75%
- Activity [8]: 90%
- Activity [9]: 4%
- Activity [10]: > 20%
- Activity [11]: 3%
- Activity [12]: 26%
- Activity [13]: 19%
- Activity [14]: 2.5%
- Activity [15]: 4%
- Activity [16]: 3%
- Activity [17]: 5%
- Activity [18]: 3%
- Activity [19]: 1%
- Activity [20]: 0.5%
- Activity [21]: 93%
- Activity [22]: 3%
- Activity [23]: > 12%
- Activity [24]: > 8%
- Activity [25]: 45%
- Activity [26]: 2%
- Activity [27]: 10%
- Activity [28]: 28%
- Activity [29]: 15%
- Activity [30]: 24%
- Activity [31]: 51%
- Activity [32]: 22%
- Activity [33]: 25%
- Activity [34]: < 25%
- Activity [35]: 75%
- Activity [36]: < 25%
- Activity [37]: 40%
- Activity [38]: 75%
- Activity [39]: 100%
- Activity [40]: 19%
- Activity [41]: 3%
- Activity [42]: 143%
- Activity [43]: 52%
- Activity [44]: 97%
- Activity [45]: 33%
